Data as given in patent EP4685136A1, “AMINO LIPID, AND LIPID NANOPARTICLES AND USE THEREOF” (Shenzhen MagicRNA Biotechnology Co., Ltd., priority 2023, dated 2024).

What was measured:
C57BL/6 mice = assay: In vivo delivery of luciferase mRNA by intramuscular injection of LNPs (IVIS imaging); conditions: total fluorescence intensity, Luc mRNA LNP, 0.5 mg/kg mRNA, 12 hours
Description: Preparation of lipid nanoparticles: same as Example 36.
(§1) Animal preparation: 6-week-old female C57BL/6 mice weighing about 20 g were selected and raised in an SPF-grade feeding room. Animal experiments were conducted strictly in accordance with the guidelines of the National Institutes of Health and animal ethics requirements.
In vivo delivery: Five C57BL/6 mice were randomly selected from each group and injected with lipid nanoparticle solution at a dose of 0.5 mg/kg mRNA by intramuscular injection. Twelve hours later, 200 µL of 10 mg/mL D-luciferin potassium salt was injected into the peritoneal cavity of each mouse. Five minutes later, the mice were placed under an in vivo imaging system (IVIS-200, Xenogen) to observe the total fluorescence intensity of each mouse and take photos for recording. The expression intensity of Luc mRNA delivered by intramuscular injection of LNPs composed of representative amino lipid compounds is shown in Table 3, with DLin-MC3 and SM-102 as controls. Table 3 Expression intensity of Luc mRNA delivered by intramuscular injection of LNPs composed of representative amino lipids

[1] = Particle size and PDI of Luc-mRNA lipid nanoparticles (Nano-ZS ZEN3600, Malvern); assay type: physicochemical; conditions: LNP of amino lipid:DSPC:cholesterol:DMG-PEG2000 47.5:10:41:1.5 with Luc-mRNA; lipid to mRNA mass ratio about 40:1
Description: (§2) The amino lipid compound of the present invention (or DLin-MC3 or SM-102 (both purchased from AVT (Shanghai) Pharmaceutical Technology Co., Ltd.)), phospholipid lipid (DSPC), cholesterol, and PEGylated lipid (DMG-PEG2000) were mixed and dissolved in anhydrous ethanol at a molar ratio of 47.5:10:41:1.5. The resulting ethanol solution and citric acid buffer (50 mM, pH = 4.0) dissolved with Luc-mRNA (TriLink) were mixed in a microfluidic chip at a volume ratio of 1:3 using a microfluidic preparation system to prepare a crude solution of lipid nanoparticles, which was then dialyzed in 1X PBS at 4°C for 6 h using a dialysis cassette (Fisher, MWCO 20,000). The product was filtered through a 0.22 µm microporous filter membrane before use. The mass ratio of the amino lipid compound to luciferase mRNA (Luc mRNA) was about 40:1.
The particle size and PDI (polydispersity index) of the prepared lipid nanoparticles were measured by Nano-ZSZEN3600 (Malvern). 20 µL of lipid nanoparticle (LNP) solution was taken for particle size measurement, and cycled three times with each cycle for 30 s.

[2] = Encapsulation efficiency of Luc-mRNA lipid nanoparticles (Quant-iT RiboGreen RNA Kit); assay type: physicochemical; conditions: LNP of amino lipid:DSPC:cholesterol:DMG-PEG2000 47.5:10:41:1.5 with Luc-mRNA; lipid to mRNA mass ratio about 40:1
Description: as §2
The encapsulation efficiency was determined according to the standard procedure of the Quant-iT RiboGreen RNA Kit. Table 1 Characterization data of LNPs prepared using representative amino lipid compounds

primary BMDC cells = assay: Transfection of Luc mRNA lipid nanoparticles on primary BMDC cells (ONE-Glo luciferase readout); assay type: cell-based, C57BL/6 mice; conditions: expression intensity of Luc mRNA on BMDCs; 10 µL LNP per well, 20,000 cells per well, 12 hours
Description: as §1
Cell acquisition: C57BL/6 mice were sacrificed by cervical dislocation and immersed in 75% alcohol for 5 minutes for disinfection. The thigh and tibia of the mice were dissected and the attached muscles were removed to expose the bone. The bone marrow in the tibia was blown out with a 1 mL syringe filled with PBS. The obtained bone marrow was dispersed by blowing and filtered through a 50 µm filter mesh to remove impurities. Red blood cell lysis solution (3-4 mL) was added to the obtained filtrate and allowed to stand for 5 minutes. Then, the supernatant was removed by centrifugation at 800 g for 5 minutes. The obtained cells were placed in 1640 culture medium (containing 10% fetal bovine serum, 20 ng/mL GMCSF, 10 ng/mL IL4) for being resuspended, and inoculated into 6-well plates at a density of 100,000 cells/mL of culture medium. The plates were placed in a cell culture incubator containing 5% CO2 at 37°C, and the medium was half-changed every 2 days. On the seventh day, the suspended cells and loosely adherent cells were collected and inoculated into 96-well all-white ELISA plates at a density of 20,000 cells per well, with a culture medium volume of 100 µL.
Cell transfection: the lipid nanoparticles encapsulating luciferase mRNA were added to a 96-well all-white ELISA plate with spreaded primary cells, and the volume of mRNA lipid nanoparticles added to each well was controlled to be 10 µL. Then, the plate was placed in an incubator with 5% CO2 concentration at 37°C for 12 hours.
Transfection efficiency detection: 20 µL of substrate ONE-Glo™ Luciferase was added to each well of a 96-well all-white ELISA plate, and the assay was performed using a multifunctional microplate reader (Biorek SynergyH1) after 1 min. The expression intensity of Luc mRNA transfected on BMDCs by lipid nanoparticles (LNPs) composed of representative amino lipid compounds is shown in Table 2, with DLin-MC3 and SM0102 as controls. Table 2 Expression intensity of transfection of representative amino lipid compounds on BMDCs

Compound	Average particle size (nm) [1]	PDI [1]	Encapsulation efficiency (%) [2]	Fluorescence intensity (C57BL/6 mice)	Luminescence intensity (primary BMDC cells)
CCCCCCCCCCC(COC(=O)CCCCC)OC(=O)CCCCCN(CCCCCC(=O)OC(CCCCCCCCCC)COC(=O)CCCCC)[C@H]1CC[C@H](O)CC1 (relative stereo) [E12LA6B6O10]	102 nm	0.10	93.0%	1.6E+09	–
CCCCCCC(COC(=O)C(CCCCC)CCCCC)OC(=O)CCCCCN(CCCO)CCCCCC(=O)OC(CCCCCC)COC(=O)C(CCCCC)CCCCC (centres unmarked) [E8CA5B6O3]	69 nm	0.06	95.8%	–	2.3E+05
CCCCCCCCCCC(COC(=O)CCCCC)OC(=O)CCCCCN(CCCCCC(=O)OC(CCCCCCCCCC)COC(=O)CCCCC)CCCOC(=O)CCN1CCN(C)CC1 (centres unmarked) [E12LA6B6O3A2]	–	–	–	–	4.0E+05
CCCCCCCCCCC(COC(=O)CCCCC)OC(=O)CCCCCN(CCCCCC(=O)OC(CCCCCCCCCC)COC(=O)CCCCC)CCCOC(=O)CCCN1CCN(C)CC1 (centres unmarked) [E12LA6B6O3A3]	53 nm	0.07	94.6%	–	–
CCCCCCCCCCC(COC(=O)CCCCC)OC(=O)CCCCCN(CCCCCC(=O)OC(CCCCCCCCCC)COC(=O)CCCCC)CCCOC(=O)C1CCN(C)CC1 (centres unmarked) [E12LA6B6O3A7]	110 nm	0.05	96.5%	–	7.3 E+04
CCCCCCCCCCC(COC(=O)CCCCC)OC(=O)CCCCCN(CCCCCC(=O)OC(CCCCCCCCCC)COC(=O)CCCCC)CCCOC(=O)CCN1CCCCC1 (centres unmarked) [E12LA6B6O3A8]	124 nm	0.06	95.3%	–	1.9 E+05
CCCCCCCCCCC(COC(=O)CCCCC)OC(=O)CCCCCN(CCCCCC(=O)OC(CCCCCCCCCC)COC(=O)CCCCC)CCN1CCCCC1 (centres unmarked) [E12LA6B6O13]	83 nm	0.01	94.4%	–	–
CCCCCCCCCCC(COC(=O)CCCCC)OC(=O)CCCCCN(CCCCCC(=O)OC(CCCCCCCCCC)COC(=O)CCCCC)CCN1CCC(O)CC1 (centres unmarked) [E12LA6B6O15]	90 nm	0.12	95.2%	–	–
CCCCCCCCCCC(CNC(=O)CCCCC)NC(=O)CCCCCN(CCCO)CCCCCC(=O)NC(CCCCCCCCCC)CNC(=O)CCCCC (centres unmarked) [E12N2LA6B6O3]	168 nm	0.06	90.3%	–	–
CCCCCCCCCCC(CCCOC(=O)CCCCC)OC(=O)CCCCCN(CCCO)CCCCCC(=O)OC(CCCCCCCCCC)CCCOC(=O)CCCCC (centres unmarked) [K4LA6B6O3]	120 nm	0.06	98.9%	–	4.9 E+05

Second part, led by results:

Average particle size (nm) [1]	PDI [1]	Encapsulation efficiency (%) [2]	Compound	Fluorescence intensity (C57BL/6 mice)	Luminescence intensity (primary BMDC cells)
108 nm	0.07	97.6%	CCCCCCC(COC(=O)CCCCC)OC(=O)CCCCCN(CCCCCC(=O)OC(CCCCCC)COC(=O)CCCCC)CCCOC(=O)CCCCCCN(C)C (centres unmarked) [E8LA6B6O3A6]	–	2.8E+05
72 nm	0.09	95.67%	CCCCCCCCCCCC(=O)OCC(CCCCCC)OC(=O)CCCCCN(CCCO)CCCCCC(=O)OC(CCCCCC)COC(=O)CCCCCCCCCCC (centres unmarked) [E8LA12B6O3]	–	–
71 nm	0.11	92.23%	CCCCCCCCC(COC(=O)CCCCCCC)OC(=O)CCCCCN(CCCO)CCCCCC(=O)OC(CCCCCCCC)COC(=O)CCCCCCC (centres unmarked) [E10LA8B6O3]	1.8E+09	–
80 nm	0.03	90.7%	CCCCCCCCCCC(COC(=O)CCCCC)OC(=O)CCCCCN(CCCCCC(=O)OC(CCCCCCCCCC)COC(=O)CCCCC)CCCOC(=O)CCN(C)C (centres unmarked) [E12LA6B6O3A4]	–	–
117 nm	0.08	97.8%	CCCCCCCCCCC(COC(=O)CCCCC)OC(=O)CCCCCN(CCCCCC(=O)OC(CCCCCCCCCC)COC(=O)CCCCC)CCCOC(=O)CCCCN(C)C (centres unmarked) [E12LA6B6O3A5]	–	1.5 E+05
95 nm	0.11	93.2%	CCCCCCCCCCC(COC(=O)CCCCC)OC(=O)CCCCCN(CCCCC)CCCCCC(=O)OC(CCCCCCCCCC)COC(=O)CCCCC (centres unmarked) [E12LA6B6O9]	–	2.2 E+05
97 nm	0.05	97.6%	CCCCCCCCCCC(COC(=O)CCCCC)OC(=O)CCCCCN(CCCCCC(=O)OC(CCCCCCCCCC)COC(=O)CCCCC)CCCN(C)C (centres unmarked) [E12LA6B6O12]	–	4.9 E+04
132 nm	0.09	95.6%	CCCCCCCCCCCC(=O)OCC(CCCCCCCCCC)OC(=O)CCCCCN(CCCCCC(=O)OC(CCCCCCCCCC)COC(=O)CCCCCCCCCCC)CCCNC(=O)CCCN(C)C (centres unmarked) [E12LA12B6O3A11]	–	1.4E+05
73 nm	0.09	97.5%	CCCCCCCCCCCC(=O)OCC(CCCCCCCCCC)OC(=O)CCCCCN(CCCO)CCCCCC(=O)OC(CCCCCCCCCC)COC(=O)CCCCCCCCCCC (centres unmarked) [E12LA12B6O3]	–	4.1E+05
121 nm	0.14	92.4%	CCCCCCCCCCCC(=O)OCC(CCCCCCCCCC)OC(=O)CCCCCN(CCCCCC(=O)OC(CCCCCCCCCC)COC(=O)CCCCCCCCCCC)CCCC(=O)OCCCN(C)C (centres unmarked) [E12LA12B6O30A9]	–	2.7 E+05
117 nm	0.08	91.8%	CCCCCCCCCCCC(=O)OCC(CCCCCCCCCC)OC(=O)CCCCCN(CCCCCC(=O)OC(CCCCCCCCCC)COC(=O)CCCCCCCCCCC)CCCC(=O)NCCCN(C)C (centres unmarked) [E12LA12B6O30A10]	–	4.1E+05
127 nm	0.03	98.2%	CCCCCCCCCCCC(=O)OCC(CCCCCCCCCC)OC(=O)CCCCCN(CCCCCC(=O)OC(CCCCCCCCCC)COC(=O)CCCCCCCCCCC)CCCC(=O)O (centres unmarked) [E12LA12B6O30]	–	–
130 nm	0.04	98.4%	CCCCCCCCCCCC(=O)OCC(CCCCCCCCCC)OC(=O)CCCCCN(CCCC#N)CCCCCC(=O)OC(CCCCCCCCCC)COC(=O)CCCCCCCCCCC (centres unmarked) [E12LA12B6O31]	–	9.6 E+04
106 nm	0.03	96.2%	CCCCCCCCCCC(CCCCOC(=O)CCCCC)OC(=O)CCCCCN(CCCO)CCCCCC(=O)OC(CCCCCCCCCC)CCCCOC(=O)CCCCC (centres unmarked) [K5LA6B6O3]	–	4.8E+05
